Data from patent US9745325B2, “Fused heterocyclic compound” (Takeda Pharmaceutical Company Limited, priority 2014, dated 2017).

Experiments:
[1] = target: T1, CDK8/CycC (Homo sapiens, UniProt P49336); test: CDK8 inhibitory activity (Kinase Tracer-236 / Eu-anti-GST fluorescence assay); type: binding; set-up: Percent inhibition of CDK8 activity (%): concentration or dose not given beside the values; settings: test compound concentration given as '1 1.1.1\4' [sic]
T1 construct: purchased Carna Biosciences
How it was run: (§1)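 Tracer-displacement TR-FRET binding assay: compound with kinase, Eu-cryptate anti-GST antibody and 60 nM Kinase Tracer-236 (pre-dilution level), 1 h at room temperature; ex 320 nm, em 615/665 nm. Percent inhibition is relative to no-compound control and a 10 μM control-compound blank.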

[2] = target: T2, CDC2L6/CycC (CDK19) (Homo sapiens, UniProt Q9BWU1); test: CDK19 inhibitory activity (Kinase Tracer-236 / Eu-anti-GST fluorescence assay); type: binding; set-up: Percent inhibition of CDK19 activity (%): concentration or dose not given beside the values; settings: test compound concentration given as '1 1.1.1\4' [sic]
T2 construct: purchased Carna Biosciences Inc
How it was run: as §1

[3] = tested on: human multiple myeloma RPMI8226 cells; test: Inhibitory activity against human multiple myeloma RPMI8226 cell growth (CellTiter-Glo); type: cell-based; settings: 1 μM test compound, cultured for 8 days; for inhibition at 1 µM: Homo sapiens, RPMI-8226, 192 h, read-out: Percent inhibition of RPMI8226 cell growth (%); for Percent inhibition of RPMI8226 cell growth (%): 1 µM
How it was run: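 RPMI8226 cells (300/well) cultured 1 day at 37 °C, 5% CO2, then given compound at 1 μM for 8 days. ATP luminescence (CellTiter-Glo) read; percent inhibition relative to 0.1% DMSO wells.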

T2 sequence (Q9BWU1 whole entry): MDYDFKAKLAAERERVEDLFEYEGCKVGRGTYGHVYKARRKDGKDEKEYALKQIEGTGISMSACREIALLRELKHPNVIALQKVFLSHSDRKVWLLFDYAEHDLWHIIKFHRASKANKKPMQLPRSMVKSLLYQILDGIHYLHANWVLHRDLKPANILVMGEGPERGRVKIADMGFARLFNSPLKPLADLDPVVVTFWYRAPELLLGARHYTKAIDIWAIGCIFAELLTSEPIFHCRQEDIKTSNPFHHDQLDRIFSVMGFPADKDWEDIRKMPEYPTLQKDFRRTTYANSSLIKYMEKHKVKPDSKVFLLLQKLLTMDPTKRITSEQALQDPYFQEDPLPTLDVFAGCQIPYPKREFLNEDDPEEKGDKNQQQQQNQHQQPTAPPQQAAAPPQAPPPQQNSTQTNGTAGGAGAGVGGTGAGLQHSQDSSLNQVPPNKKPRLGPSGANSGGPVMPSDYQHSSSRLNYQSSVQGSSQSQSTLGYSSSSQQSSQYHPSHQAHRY
T2 sequence (P24863 whole entry partner): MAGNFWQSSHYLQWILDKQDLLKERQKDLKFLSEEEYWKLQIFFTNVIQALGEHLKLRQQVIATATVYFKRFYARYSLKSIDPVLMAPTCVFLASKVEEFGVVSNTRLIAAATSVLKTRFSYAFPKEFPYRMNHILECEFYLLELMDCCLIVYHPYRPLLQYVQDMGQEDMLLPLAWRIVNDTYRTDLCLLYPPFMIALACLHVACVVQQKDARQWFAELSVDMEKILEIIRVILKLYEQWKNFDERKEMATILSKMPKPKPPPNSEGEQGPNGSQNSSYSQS
T1 sequence (P49336 whole entry): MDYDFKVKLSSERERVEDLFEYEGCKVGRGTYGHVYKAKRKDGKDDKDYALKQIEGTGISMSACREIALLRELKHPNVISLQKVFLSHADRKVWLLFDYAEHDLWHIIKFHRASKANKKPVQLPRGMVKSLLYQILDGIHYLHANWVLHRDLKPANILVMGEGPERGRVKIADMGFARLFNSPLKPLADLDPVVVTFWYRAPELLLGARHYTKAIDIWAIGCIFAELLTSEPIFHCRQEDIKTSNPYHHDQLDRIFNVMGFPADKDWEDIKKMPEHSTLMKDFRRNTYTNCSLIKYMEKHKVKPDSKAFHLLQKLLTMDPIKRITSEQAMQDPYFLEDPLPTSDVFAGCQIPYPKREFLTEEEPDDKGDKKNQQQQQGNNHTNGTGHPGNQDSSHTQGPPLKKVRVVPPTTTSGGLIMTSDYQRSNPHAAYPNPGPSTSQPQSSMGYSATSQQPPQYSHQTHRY
T1 sequence (P24863 whole entry partner): as the sequence (P24863 whole entry partner) above

Structure (SMILES) | Percent inhibition of CDK8 activity (%) [1] | Percent inhibition of CDK19 activity (%) [2] | inhibition at 1 µM [3] | Percent inhibition of RPMI8226 cell growth (%) [3]
Cc1nc(C(N)=O)ccc1Oc1sc(C(N)=O)c2c1-c1sncc1CC2 [Example 131, 8-((6-Carbamoyl-2-methylpyridin-3-yl)oxy)-4,5-dihydrothieno[3,4-g][1,2] benzothiazole-6-carboxamide] | 101% | 102% | 73% | –
NC(=O)c1sc(Oc2cccnc2)c2c1CCc1cnsc1-2 [Example 132, 8-(Pyridin-3-yloxy)-4,5-dihydrothieno [3,4-g][1,2]benzothiazole-6-carboxamide] | 102% | 97% | 61% | –
CCC(=O)Nc1ccc(Oc2sc(C(N)=O)c3c2-c2sncc2CC3)c(C)n1 [Example 133, 8-((2-Methyl-6-(propionylamino)pyridin-3-yl)oxy)-4,5-dihydrothieno [3,4-g][1,2]benzothiazole-6-carboxamide] | 110% | 101% | 63% | –
CCC(=O)Nc1ccc(Oc2sc(C(N)=O)c3c2-c2sncc2CC3)cn1 [Example 134, 8-((6-(Propionylamino)pyridin-3-yl)oxy)-4,5-dihydrothieno[3,4-g][1,2] benzothiazole-6-carboxamide] | 100% | 99% | 59% | –
CC(=O)N(C)c1ccc(Oc2sc(C(N)=O)c3c2-c2sncc2CC3)cn1 [Example 135, 8-((6-(Acetyl(methyl)amino)pyridin-3-yl)oxy)-4,5-dihydrothieno[3,4-g][1,2] benzothiazole-6-carboxamide] | 109% | 97% | 55% | –
CCOC(=O)Nc1ccc(Oc2sc(C(N)=O)c3c2-c2sncc2CC3)c(C)n1 [Example 136, Ethyl (5-((6-carbamoyl-4,5-dihydrothieno[3,4-g][1,2]benzothiazol-8-yl)oxy)-6-methylpyridin-2-yl) carbamate] | 107% | 102% | 66% | –
COCCNC(=O)c1ccc(Oc2sc(C(N)=O)c3c2-c2sncc2CC3)cn1 [Example 138, 8-((6-((2-Methoxyethyl)carbamoyl)pyridin-3-yl)oxy)-4,5-dihydrothieno[3,4-g][1,2]benzothiazole-6-carboxamide fumaric acid (1:1)] | 103% | 100% | – | 69%
COCCNC(=O)c1ccc(Oc2sc(C(N)=O)c3c2-c2sncc2CC3)cn1 [Example 139, 8-((6-((2-Methoxyethyl)carbamoyl)pyridin-3-yl)oxy)-4,5-dihydrothieno[3,4-g][1,2]benzothiazole-6-carboxamide succinic acid (1:1)] | 103% | 100% | – | 71%
